Source: ChEMBL document CHEMBL4680273, “Teixobactin: A Paving Stone toward a New Class of Antibiotics?” (2020)
In brackets after ≈: the same amount, converted by molar mass.

Columns and labels:
Assay type in all cases: functional
[1] = tested on: Staphylococcus aureus; assay: Antibacterial activity against methicillin resistant Staphylococcus aureus ATCC 33591 incubated for 24 hrs
[2] = tested on: Staphylococcus aureus; assay: Antibacterial activity against Staphylococcus aureus ATCC 29213 incubated for 16 hrs by UV/Visible absorbance method
[3] = tested on: Staphylococcus aureus; assay: Antibacterial activity against Staphylococcus aureus SH1000 incubated for 24 hrs by CLSI-broth microdilution method
[4] = Staphylococcus aureus, SH1000, read-out: MIC

Question: Which MIC [1] does the source give for `CC[C@H](C)[C@H](NC(=O)[C@@H](Cc1ccccc1)NC)C(=O)N[C@@H](CO)C(=O)N[C@H](C)C(=O)N[C@@H](C(=O)N[C@H](C(=O)N[C@@H](C)C(=O)N[C@H]1C(=O)N[C@@H](C)C(=O)N[C@@H](CCCNC(=N)N)C(=O)N[C@@H]([C@@H](C)CC)C(=O)O[C@H]1C)[C@@H](C)CC)[C@@H](C)CC` here?
Answer: Its MIC is 1 µg/mL (≈ 0.854 µM).

Question: For `CC[C@H](C)[C@@H]1NC(=O)[C@H](CCCNC(=N)N)NC(=O)[C@H](C)NC(=O)[C@@H](NC(=O)[C@H](CO)NC(=O)[C@@H](NC(=O)[C@H](NC(=O)[C@@H](CCC(N)=O)NC(=O)[C@H](CO)NC(=O)[C@@H](NC(=O)[C@@H](Cc2ccccc2)NC)[C@@H](C)CC)[C@@H](C)CC)[C@@H](C)CC)[C@@H](C)NC1=O`, which MIC [2] is on record?
Answer: Its MIC is over 32 µg/mL.

Question: `CC[C@H](C)[C@H](NC(=O)[C@@H](Cc1ccccc1)NC)C(=O)N[C@@H](CO)C(=O)N[C@H](CCC(N)=O)C(=O)N[C@@H](C(=O)N(C)[C@H](C(=O)N[C@@H](CO)C(=O)N[C@H]1C(=O)N[C@@H](C)CC(=O)N[C@@H](CCCNC(=N)N)C(=O)N[C@@H]([C@@H](C)CC)C(=O)O[C@H]1C)[C@@H](C)CC)[C@@H](C)CC` was tested. Which MIC [2] did it give?
Answer: The MIC was 32 µg/mL (≈ 25.1 µM).

Question: `CC[C@H](C)[C@@H]1NC(=O)[C@H](CCCNC(=N)N)NC(=O)[C@H](C)NC(=O)[C@H](NC(=O)[C@H](CO)NC(=O)[C@@H](NC(=O)[C@H](NC(=O)[C@@H](CCC(N)=O)NC(=O)[C@H](CO)NC(=O)[C@@H](NC(=O)[C@@H](Cc2ccccc2)NC)[C@@H](C)CC)[C@@H](C)CC)[C@@H](C)CC)[C@H](C)NC1=O` was tested. Which MIC [2] did it give?
Answer: The MIC was 1 µg/mL (≈ 0.804 µM).

Question: `CC[C@H](C)[C@H](NC(=O)[C@@H](Cc1ccccc1)NC)C(=O)N[C@@H](CO)C(=O)N[C@H](CCC(N)=O)C(=O)N[C@@H](C(=O)N[C@H](C(=O)N[C@@H](CO)C(=O)N[C@H]1C(=O)N[C@@H](C)C(=O)N[C@@H](CCCNC(=N)N)C(=O)N[C@@H]([C@@H](C)CC)CC(=O)O[C@H]1C)[C@@H](C)CC)[C@@H](C)CC` was tested. Which MIC [2] did it give?
Answer: Its MIC is 4 µg/mL (≈ 3.18 µM).

Question: Which MIC [3, 4] does the source give for `CCCCC1NC(=O)[C@H](CCCNC(=N)NC)NC(=O)[C@H](C)NC(=O)[C@H](NC(=O)[C@H](CO)NC(=O)[C@@H](NC(=O)[C@H](NC(=O)[C@@H](CCC(N)=O)NC(=O)[C@H](CO)NC(=O)[C@@H](NC(=O)[C@@H](Cc2ccccc2)NC)[C@@H](C)CC)[C@@H](C)CC)[C@@H](C)CC)[C@H](C)OC1=O` (stereo not given in full) here?
Answer: The MIC was 4 µg/mL (≈ 3.18 µM).

Question: `CC[C@H](C)[C@H](NC(=O)[C@@H](Cc1ccccc1)NC)C(=O)N[C@@H](CO)C(=O)N[C@H](CCC(N)=O)C(=O)N[C@@H](C(=O)N[C@H](C(=O)N[C@@H](CO)C(=O)N[C@H]1C(=O)N[C@@H](C)C(=O)N[C@@H](CCCNC(=N)N)CC(=O)N[C@@H]([C@@H](C)CC)CC(=O)O[C@H]1C)[C@@H](C)CC)[C@@H](C)CC` was tested. Which MIC [2] did it give?
Answer: Its MIC is 4 µg/mL (≈ 3.14 µM).

Question: `C=CCCC1NC(=O)[C@H](CCCNC(=N)N)NC(=O)[C@H](C)NC(=O)[C@H](NC(=O)[C@H](CO)NC(=O)[C@@H](NC(=O)[C@H](NC(=O)[C@@H](CCC(N)=O)NC(=O)[C@H](CO)NC(=O)[C@@H](NC(=O)[C@@H](Cc2ccccc2)NC)[C@@H](C)CC)[C@@H](C)CC)[C@@H](C)CC)[C@H](C)OC1=O` (stereo not given in full) was tested. Which MIC [3, 4] did it give?
Answer: The MIC was 32 µg/mL (≈ 25.8 µM).

Question: How did the MIC [3] turn out when `CCCCC1NC(=O)[C@H](CCCN/C(=N\C)NC)NC(=O)[C@H](C)NC(=O)[C@H](NC(=O)[C@H](CO)NC(=O)[C@@H](NC(=O)[C@H](NC(=O)[C@@H](CCC(N)=O)NC(=O)[C@H](CO)NC(=O)[C@@H](NC(=O)[C@@H](Cc2ccccc2)NC)[C@@H](C)CC)[C@@H](C)CC)[C@@H](C)CC)[C@H](C)OC1=O` (stereo in doubt; 127) was run?
Answer: Its MIC is 16 µg/mL (≈ 12.6 µM).

Question: Which MIC [3, 4] does the source give for `CCCC1NC(=O)[C@H](CCCNC(=N)N)NC(=O)[C@H](C)NC(=O)[C@H](NC(=O)[C@H](CO)NC(=O)[C@@H](NC(=O)[C@H](NC(=O)[C@@H](CCC(N)=O)NC(=O)[C@H](CO)NC(=O)[C@@H](NC(=O)[C@@H](Cc2ccccc2)NC)[C@@H](C)CC)[C@@H](C)CC)[C@@H](C)CC)[C@H](C)OC1=O` (stereo not given in full) here?
Answer: Its MIC is 8 µg/mL (≈ 6.5 µM).

Question: How did the MIC [2] turn out when `CC[C@H](C)[C@@H]1NC(=O)[C@H](CCCNC(=N)N)NC(=O)[C@H](C)NC(=O)[C@H](NC(=O)[C@H](CO)NC(=O)[C@@H](NC(=O)[C@H](NC(=O)[C@@H](CCC(N)=O)NC(=O)[C@H](CO)NC(=O)[C@@H](NC(=O)[C@@H](Cc2ccccc2)NC)[C@@H](C)CC)[C@@H](C)CC)[C@@H](C)CC)[C@@H](C)NC1=O` was run?
Answer: Its MIC is over 32 µg/mL.

Question: `CC[C@H](C)[C@H](NC(=O)[C@@H](Cc1ccccc1)NC)C(=O)N[C@@H](CO)C(=O)N[C@H](CCC(N)=O)C(=O)N[C@@H](C(=O)N[C@H](C(=O)N[C@@H](CO)C(=O)N[C@H]1C(=O)N[C@@H](C)CC(=O)N[C@@H](CCCNC(=N)N)CC(=O)N[C@@H]([C@@H](C)CC)CC(=O)O[C@H]1C)[C@@H](C)CC)[C@@H](C)CC` was tested. Which MIC [2] did it give?
Answer: Its MIC is 16 µg/mL (≈ 12.4 µM).

Question: `CC[C@H](C)[C@H](NC(=O)[C@@H](Cc1ccccc1)NC)C(=O)N[C@@H](CO)C(=O)N[C@H](CCC(N)=O)C(=O)N[C@@H](C(=O)N[C@H](C(=O)N[C@@H](CO)C(=O)N[C@H]1C(=O)N[C@@H](C)C(=O)N[C@H](C)C(=O)N[C@@H]([C@@H](C)CC)C(=O)O[C@H]1C)[C@@H](C)CC)[C@@H](C)CC` was tested. Which MIC [1] did it give?
Answer: Its MIC is 32 µg/mL (≈ 27.6 µM).

Question: `CC[C@H](C)[C@@H]1NC(=O)[C@H](CCCNC(=N)N)NC(=O)[C@H](C)NC(=O)[C@@H](NC(=O)[C@H](CO)NC(=O)[C@@H](NC(=O)[C@H](NC(=O)[C@@H](CCC(N)=O)NC(=O)[C@H](CO)NC(=O)[C@@H](NC(=O)[C@@H](Cc2ccccc2)NC)[C@@H](C)CC)[C@@H](C)CC)[C@@H](C)CC)[C@H](C)NC1=O` was tested. Which MIC [2] did it give?
Answer: Its MIC is over 32 µg/mL.

Question: How did the MIC [1] turn out when `CC[C@H](C)[C@H](NC(=O)[C@@H](Cc1ccccc1)NC)C(=O)N[C@@H](C)C(=O)N[C@H](CCC(N)=O)C(=O)N[C@@H](C(=O)N[C@H](C(=O)N[C@@H](CO)C(=O)N[C@H]1C(=O)N[C@@H](C)C(=O)N[C@@H](CCCNC(=N)N)C(=O)N[C@@H]([C@@H](C)CC)C(=O)O[C@H]1C)[C@@H](C)CC)[C@@H](C)CC` was run?
Answer: Its MIC is 1 µg/mL (≈ 0.814 µM).

Question: How did the MIC [2] turn out when `CC[C@H](C)[C@H](NC(=O)[C@@H](Cc1ccccc1)NC)C(=O)N[C@@H](CO)C(=O)N[C@H](CCC(N)=O)C(=O)N[C@@H](C(=O)N[C@H](C(=O)N[C@@H](CO)C(=O)N[C@H]1C(=O)N[C@@H](C)CC(=O)N[C@@H](CCCNC(=N)N)CC(=O)N[C@@H]([C@@H](C)CC)C(=O)O[C@H]1C)[C@@H](C)CC)[C@@H](C)CC` was run?
Answer: Its MIC is over 32 µg/mL.

Question: `CC[C@H](C)[C@H](NC(=O)[C@@H](Cc1ccccc1)NC)C(=O)N[C@@H](CO)C(=O)N[C@H](CCC(N)=O)C(=O)N[C@@H](C(=O)N[C@H](C(=O)N[C@@H](CO)C(=O)N[C@H]1C(=O)N[C@@H](C)C(=O)N[C@@H](CCCNC(=N)N)CC(=O)N[C@@H]([C@@H](C)CC)C(=O)O[C@H]1C)[C@@H](C)CC)[C@@H](C)CC` was tested. Which MIC [2] did it give?
Answer: Its MIC is 8 µg/mL (≈ 6.36 µM).

Question: `CC[C@H](C)[C@H](NC(=O)[C@@H](Cc1ccccc1)NC)C(=O)N[C@@H](CO)C(=O)N[C@H](CCC(N)=O)C(=O)N[C@@H](C(=O)N[C@H](C(=O)N[C@@H](CO)C(=O)N[C@H]1C(=O)N[C@@H](C)CC(=O)N[C@@H](CCCNC(=N)N)C(=O)N[C@@H]([C@@H](C)CC)CC(=O)O[C@H]1C)[C@@H](C)CC)[C@@H](C)CC` was tested. Which MIC [2] did it give?
Answer: The MIC was 32 µg/mL (≈ 25.1 µM).

Question: Which MIC [1] does the source give for `CC[C@H](C)[C@H](NC(=O)[C@@H](Cc1ccccc1)NC)C(=O)N[C@@H](CO)C(=O)N[C@H](CCC(N)=O)C(=O)N[C@@H](C(=O)N[C@H](C(=O)N[C@@H](CO)C(=O)N[C@H]1C(=O)N[C@@H](C)C(=O)N[C@@H](C)C(=O)N[C@@H]([C@@H](C)CC)C(=O)O[C@H]1C)[C@@H](C)CC)[C@@H](C)CC` here?
Answer: Its MIC is 1 µg/mL (≈ 0.863 µM).

Question: What about the MIC [2] of the same molecule?
Answer: The MIC was 1 µg/mL (≈ 0.863 µM).
